Results reported in ChEMBL document CHEMBL1146065, “Structure-based optimization of azole antifungal agents by CoMFA, CoMSIA, and molecular docking” (2006).
Values after ≈ are worked out from the molar mass of the structure shown.

Columns and labels:
Assay type in all cases: functional
Candida albicans = test: Antifungal activity against Candida albicans
Cryptococcus neoformans = test: Antifungal activity against Cryptococcus neoformans
Fonsecaea pedrosoi = test: Antifungal activity against Fonsecaea pedrosoi
Candida parapsilosis = test: Antifungal activity against Candida parapsilosis; settings: Lodderomyces parapsilosis
Sporothrix schenckii = test: Antifungal activity against Sporothrix schenckii
Aspergillus fumigatus = test: Antifungal activity against Aspergillus fumigatus
Trichophyton rubrum = test: Antifungal activity against Trichophyton rubrum
Candida tropicalis = test: Antifungal activity against Candida tropicalis

CC(C)(C)c1ccc(N2CCN(CC(O)(Cn3cncn3)c3ccc(F)cc3F)CC2)cc1 (configuration not stated)
MIC80 (Candida albicans): 0.137 µM

N#Cc1ccc(CN2CCN(CC(O)(Cn3cncn3)c3ccc(F)cc3F)CC2)cc1 (configuration not stated)
MIC80 (Candida albicans): 0.285 µM

CN(Cc1ccc(-n2cnn(Cc3ccccc3Cl)c2=O)cc1)CC(O)(Cn1cncn1)c1ccc(F)cc1F (configuration not stated)
MIC80 (Candida albicans): 0.004 µg/mL
MIC80 (Cryptococcus neoformans): 1 µg/mL (≈ 1.77 µM)
MIC80 (Fonsecaea pedrosoi): 0.5 µg/mL (≈ 0.883 µM)
MIC80 (Candida parapsilosis): 0.06 µg/mL (≈ 0.106 µM)
MIC80 (Sporothrix schenckii): 32 µg/mL (≈ 56.5 µM)
MIC80 (Aspergillus fumigatus): 32 µg/mL (≈ 56.5 µM)
MIC80 (Trichophyton rubrum): 4 µg/mL (≈ 7.07 µM)
MIC80 (Candida tropicalis): 0.125 µg/mL (≈ 0.221 µM)

O=[N+]([O-])c1ccccc1CN1CCN(CC(O)(Cn2cncn2)c2ccc(F)cc2F)CC1 (configuration not stated)
MIC80 (Candida albicans): 34.9 µM

OC(CN1CCN(Cc2cccc(Cl)c2)CC1)(Cn1cncn1)c1ccc(F)cc1F (configuration not stated)
MIC80 (Candida albicans): 0.14 µM

Nc1ccc(C(=O)N2CCN(CC(O)(Cn3cncn3)c3ccc(F)cc3F)CC2)cc1 (configuration not stated)
MIC80 (Candida albicans): 36.2 µM

CN(Cc1ccc(-n2cnn(Cc3cccc(C(F)(F)F)c3)c2=O)cc1)CC(O)(Cn1cncn1)c1ccc(F)cc1F (configuration not stated)
MIC80 (Candida albicans): 0.002 µg/mL
MIC80 (Cryptococcus neoformans): 0.125 µg/mL (≈ 0.208 µM)
MIC80 (Fonsecaea pedrosoi): 0.125 µg/mL (≈ 0.208 µM)
MIC80 (Candida parapsilosis): 0.008 µg/mL (≈ 0.0133 µM)
MIC80 (Sporothrix schenckii): 64 µg/mL (≈ 107 µM)
MIC80 (Aspergillus fumigatus): 16 µg/mL (≈ 26.7 µM)
MIC80 (Trichophyton rubrum): 0.5 µg/mL (≈ 0.834 µM)
MIC80 (Candida tropicalis): 0.0625 µg/mL (≈ 0.104 µM)

CN(Cc1ccc(-n2cnn(CC(=O)c3ccccc3)c2=O)cc1)CC(O)(Cn1cncn1)c1ccc(F)cc1F (configuration not stated)
MIC80 (Candida albicans): 0.016 µg/mL
MIC80 (Cryptococcus neoformans): 8 µg/mL (≈ 14.3 µM)
MIC80 (Fonsecaea pedrosoi): 1 µg/mL (≈ 1.79 µM)
MIC80 (Candida parapsilosis): 0.008 µg/mL (≈ 0.0143 µM)
MIC80 (Sporothrix schenckii): 64 µg/mL (≈ 114 µM)
MIC80 (Aspergillus fumigatus): 64 µg/mL (≈ 114 µM)
MIC80 (Trichophyton rubrum): 8 µg/mL (≈ 14.3 µM)
MIC80 (Candida tropicalis): 0.0625 µg/mL (≈ 0.112 µM)

O=C(c1ccc([N+](=O)[O-])cc1)N1CCN(CC(O)(Cn2cncn2)c2ccc(F)cc2F)CC1 (configuration not stated)
MIC80 (Candida albicans): 1.06 µM

CN(Cc1ccc(-n2cnn(Cc3ccc(I)cc3)c2=O)cc1)CC(O)(Cn1cncn1)c1ccc(F)cc1F (configuration not stated)
MIC80 (Candida albicans): 0.031 µg/mL
MIC80 (Cryptococcus neoformans): 0.25 µg/mL (≈ 0.38 µM)
MIC80 (Fonsecaea pedrosoi): 0.0625 µg/mL (≈ 0.0951 µM)
MIC80 (Candida parapsilosis): 0.031 µg/mL (≈ 0.0472 µM)
MIC80 (Sporothrix schenckii): 64 µg/mL (≈ 97.3 µM)
MIC80 (Aspergillus fumigatus): 2 µg/mL (≈ 3.04 µM)
MIC80 (Trichophyton rubrum): 0.25 µg/mL (≈ 0.38 µM)
MIC80 (Candida tropicalis): 1 µg/mL (≈ 1.52 µM)

CN(Cc1ccc(-n2cnn(Cc3ccc(C(F)(F)F)cc3)c2=O)cc1)CC(O)(Cn1cncn1)c1ccc(F)cc1F (configuration not stated)
MIC80 (Candida albicans): 0.001 µg/mL
MIC80 (Cryptococcus neoformans): 0.25 µg/mL (≈ 0.417 µM)
MIC80 (Fonsecaea pedrosoi): 0.0625 µg/mL (≈ 0.104 µM)
MIC80 (Candida parapsilosis): 0.008 µg/mL (≈ 0.0133 µM)
MIC80 (Sporothrix schenckii): 16 µg/mL (≈ 26.7 µM)
MIC80 (Aspergillus fumigatus): 8 µg/mL (≈ 13.3 µM)
MIC80 (Trichophyton rubrum): 0.5 µg/mL (≈ 0.834 µM)
MIC80 (Candida tropicalis): 0.0625 µg/mL (≈ 0.104 µM)

Cc1ccc(C(=O)Cn2ncn(-c3ccc(CN(C)CC(O)(Cn4cncn4)c4ccc(F)cc4F)cc3)c2=O)cc1 (configuration not stated)
MIC80 (Candida albicans): 0.002 µg/mL
MIC80 (Cryptococcus neoformans): 0.125 µg/mL (≈ 0.218 µM)
MIC80 (Fonsecaea pedrosoi): 0.125 µg/mL (≈ 0.218 µM)
MIC80 (Candida parapsilosis): 0.008 µg/mL (≈ 0.0139 µM)
MIC80 (Sporothrix schenckii): 64 µg/mL (≈ 112 µM)
MIC80 (Aspergillus fumigatus): 16 µg/mL (≈ 27.9 µM)
MIC80 (Trichophyton rubrum): 1 µg/mL (≈ 1.74 µM)
MIC80 (Candida tropicalis): 0.0312 µg/mL (≈ 0.0545 µM)

Cc1ccc(CN2CCN(CC(O)(Cn3cncn3)c3ccc(F)cc3F)CC2)cc1 (configuration not stated)
MIC80 (Candida albicans): 2.34 µM

OC(CN1CCN(Cc2ccccc2Cl)CC1)(Cn1cncn1)c1ccc(F)cc1F (configuration not stated)
MIC80 (Candida albicans): 0.558 µM

N#Cc1ccc(N2CCN(CC(O)(Cn3cncn3)c3ccc(F)cc3F)CC2)cc1 (configuration not stated)
MIC80 (Candida albicans): 0.0324 µM

OC(CN1CCN(Cc2ccc(Br)cc2)CC1)(Cn1cncn1)c1ccc(F)cc1F (configuration not stated)
MIC80 (Candida albicans): 0.254 µM

CCc1ccc(CN2CCN(CC(O)(Cn3cncn3)c3ccc(F)cc3F)CC2)cc1 (configuration not stated)
MIC80 (Candida albicans): 0.566 µM

OC(CN1CCN(Cc2ccc(I)cc2)CC1)(Cn1cncn1)c1ccc(F)cc1F (configuration not stated)
MIC80 (Candida albicans): 0.116 µM

OC(CN1CCN(c2cc(C(F)(F)F)cc(Cl)n2)CC1)(Cn1cncn1)c1ccc(F)cc1F (configuration not stated)
MIC80 (Candida albicans): 0.124 µM

CC(C)(C)c1ccc(CN2CCN(CC(O)(Cn3cncn3)c3ccc(F)cc3F)CC2)cc1 (configuration not stated)
MIC80 (Candida albicans): 0.034 µM

CC(=O)c1ccc(N2CCN(CC(O)(Cn3cncn3)c3ccc(F)cc3F)CC2)cc1 (configuration not stated)
MIC80 (Candida albicans): 0.0339 µM

Cc1ccccc1C(=O)N1CCN(CC(O)(Cn2cncn2)c2ccc(F)cc2F)CC1 (configuration not stated)
MIC80 (Candida albicans): 36.2 µM

OC(CN1CCN(Cc2ccc(Cl)cc2Cl)CC1)(Cn1cncn1)c1ccc(F)cc1F (configuration not stated)
MIC80 (Candida albicans): 0.0331 µM

OC(CN1CCN(c2ccccn2)CC1)(Cn1cncn1)c1ccc(F)cc1F (configuration not stated)
MIC80 (Candida albicans): 0.156 µM

OC(CN1CCN(Cc2ccccc2F)CC1)(Cn1cncn1)c1ccc(F)cc1F (configuration not stated)
MIC80 (Candida albicans): 4.64 µM

Cc1cccc(C(=O)N2CCN(CC(O)(Cn3cncn3)c3ccc(F)cc3F)CC2)c1 (configuration not stated)
MIC80 (Candida albicans): 2.27 µM

OC(CN1CCN(Cc2ccc(Cl)cc2)CC1)(Cn1cncn1)c1ccc(F)cc1F (configuration not stated)
MIC80 (Candida albicans): 0.0357 µM

O=C(c1cccc([N+](=O)[O-])c1)N1CCN(CC(O)(Cn2cncn2)c2ccc(F)cc2F)CC1 (configuration not stated)
MIC80 (Candida albicans): 16.9 µM

OC(CN1CCN(Cc2cccc(I)c2)CC1)(Cn1cncn1)c1ccc(F)cc1F (configuration not stated)
MIC80 (Candida albicans): 0.232 µM

Cc1cccc(CN2CCN(CC(O)(Cn3cncn3)c3ccc(F)cc3F)CC2)c1 (configuration not stated)
MIC80 (Candida albicans): 0.292 µM
